Reference: patent US12371454B2, “Cyclic peptide compound having Kras inhibitory action” (priority 2019, dated 2025)
Starred links: 1 amine or outer side, 2 acyl side, 3 side chain; linkers in the order of their positions; H or OH if unused. Positions of bridges follow the written chain, without caps; N, C: chain ends. Non-standard residues stand in square brackets, D forms with d. Residues, ends and D or L forms follow the SMILES beside them. *: point of attachment. hPhe(3-Cl-4-CF3) = N[C@@H](CCc1ccc(C(F)(F)F)c(Cl)c1)C(=O)O; hPhe(3-F,4-CF3) = N[C@@H](CCc1ccc(C(F)(F)F)c(F)c1)C(=O)O; Pro(cis-4-Ph) = O=C(O)[C@@H]1C[C@H](c2ccccc2)CN1; NMePhe(4-Me) = CN[C@@H](Cc1ccc(C)cc1)C(=O)O; NMeNle(6-CHF2) = CN[C@@H](CCCCC(F)F)C(=O)O; NMePhe(2-Me) = CN[C@@H](Cc1ccccc1C)C(=O)O; NMedβ3hAla = C[C@H](CC(=O)[*:2])N(C)[*:1]; hNle(7,7-F2) = N[C@@H](CCCCC(F)F)C(=O)O; NMeGly(cPent) = CN[C@H](C(=O)O)C1CCCC1; Phe(3-I) = N[C@@H](Cc1cccc(I)c1)C(=O)O; Pro(4,4-F2) = O=C(O)[C@@H]1CC(F)(F)CN1; Pip(4-oxo) = O=C1CCN[C@H](C(=O)O)C1; NMeCha = CN[C@@H](CC1CCCCC1)C(=O)O; X2 = C=CC[C@](C)(N[*:1])C(=O)[*:2]; NMeChg = CN[C@H](C(=O)O)C1CCCCC1; NMeF = CN[C@@H](Cc1ccccc1)C(=O)O; NMeD = CN[C@@H](CC(=O)O)C(=O)O; NMeL = CN[C@@H](CC(C)C)C(=O)O; NMePra = C#CC[C@H](NC)C(=O)O; d(β3hP) = O=C(O)C[C@H]1CCCN1; NMeNva = CCC[C@H](NC)C(=O)O; NMeV = CN[C@H](C(=O)O)C(C)C; d(β3hA) = C[C@@H](N)CC(=O)O; NMeAbu = CC[C@H](NC)C(=O)O; NMeA = CN[C@@H](C)C(=O)O; NMeAib = CNC(C)(C)C(=O)O; Piperidide = C1CCN(*)CC1; Pyrrolidide = C1CCN(*)C1; dNMeA = CN[C@H](C)C(=O)O; Ac5c = NC1(C(=O)O)CCCC1; Aze = O=C(O)[C@@H]1CCN1; Sar = CNCC(=O)O

What follows are molecules tested against T1, Kras and SOS1 (biotin-tagged human Kras loaded with GDP, His-tagged human SOS1) (Homo sapiens, UniProt P01116, G12D) (assay: Protein-protein interaction inhibition between Kras and SOS1 (KrasGl2D-SOS PPI) using AlphaScreen). Details: AlphaScreen; biotin-tagged human Kras loaded with GDP, His-tagged human SOS1; read-out: KRAS G12D-SOS PPI IC50.
T1 construct: made in house; host or cells: E. coli (stated for Kras only)
T1 sequence (P01116 1-188 isoform P01116-2 G12D): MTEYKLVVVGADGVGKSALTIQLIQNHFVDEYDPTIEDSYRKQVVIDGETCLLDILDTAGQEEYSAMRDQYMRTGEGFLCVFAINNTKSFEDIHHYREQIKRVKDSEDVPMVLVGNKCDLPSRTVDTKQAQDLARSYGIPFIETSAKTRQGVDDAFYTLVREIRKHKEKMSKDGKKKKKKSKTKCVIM
Format: binding
Outline: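 Binding between SOS1 and Kras is detected as bead-proximity luminescence: illuminate Ni-conjugated donors (680 nm), collect 520-620 nm emission from streptavidin-conjugated acceptors; Kras carries biotin and GDP loaded after purification, SOS1 carries a His tag.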

Q: With `CCC[C@H]1C(=O)N[C@@H]([C@@H](C)CC)C(=O)N(C)CC(=O)N(C)CC(=O)N(C)[C@@H](CC2CCCCC2)C(=O)N(C)CC(=O)N[C@@H](CCc2ccc(C(F)(F)F)c(Cl)c2)C(=O)N2CC(F)(F)C[C@H]2C(=O)NC2(CCCC2)C(=O)N(C)[C@@H](C2CCCCC2)C(=O)N(C)[C@H](C(=O)N2CCCC2)CC(=O)N1C` [Compound 1232] ([NMeNva]I[Sar][Sar][NMeCha][Sar][hPhe(3-Cl-4-CF3)][Pro(4,4-F2)][Ac5c][NMeChg][NMeD]-Pyrrolidide; lactam N-11) as the molecule, how does the IC50 read?
A: The IC50 was 0.47 nM.

Q: With `CC[C@H](C)[C@@H]1NC(=O)[C@H](C2CCCC2)N(C)C(=O)C[C@@H](C)NC(=O)[C@H](C(C)C)N(C)C(=O)C2(CCCC2)NC(=O)[C@@H]2CCCN2C(=O)[C@H](CCc2ccc(C(F)(F)F)c(Cl)c2)NC(=O)CN(C)C(=O)[C@H](CC2CCCCC2)N(C)C(=O)CN(C)C(=O)CN(C)C1=O` [Compound 857] (cyclo([Ac5c][NMeV][d(β3hA)][NMeGly(cPent)]I[Sar][Sar][NMeCha][Sar][hPhe(3-Cl-4-CF3)]P)) as the molecule, how does the IC50 read?
A: The IC50 was 17 nM.

Q: With `CC(C)C[C@H]1C(=O)N[C@@H](CCCCC(F)F)C(=O)N(C)CC(=O)N(C)CC(=O)N(C)[C@@H](CC2CCCCC2)C(=O)N(C)CC(=O)N[C@@H](CCc2ccc(C(F)(F)F)c(Cl)c2)C(=O)N2CCC[C@H]2C(=O)NC2(CCCC2)C(=O)N(C)[C@@H](C2CCCCC2)C(=O)N(C)[C@H](C(=O)N2CCCCC2)CC(=O)N1C` [Compound 92] ([NMeL][hNle(7,7-F2)][Sar][Sar][NMeCha][Sar][hPhe(3-Cl-4-CF3)]P[Ac5c][NMeChg][NMeD]-Piperidide; lactam N-11) as the molecule, how does the IC50 read?
A: Its IC50 is 5.5 nM.

Q: `CC[C@H](C)[C@@H]1NC(=O)[C@H](C)N(C)C(=O)C[C@@H](C)N(C)C(=O)[C@H](CC)N(C)C(=O)C(C)(C)N(C)C(=O)[C@@H]2CCCN2C(=O)[C@H](CCc2ccc(C(F)(F)F)c(Cl)c2)NC(=O)CN(C)C(=O)[C@H](CC2CCCCC2)N(C)C(=O)[C@@H]2CCN2C(=O)[C@H](C)N(C)C1=O` [Compound 2154] (cyclo([Aze][NMeCha][Sar][hPhe(3-Cl-4-CF3)]P[NMeAib][NMeAbu][NMedβ3hAla][NMeA]I[NMeA])) was tested. Which IC50 did it give?
A: Its IC50 is 33 nM.

Q: `C#CC[C@H]1C(=O)N(C)[C@H](C(=O)N2CCCCC2)CC(=O)N(C)[C@@H](CC(C)C)C(=O)N[C@@H]([C@@H](C)CC)C(=O)N(C)CC(=O)N(C)CC(=O)N(C)[C@@H](CC2CCCCC2)C(=O)N(C)CC(=O)N[C@@H](CCc2ccc(C(F)(F)F)c(Cl)c2)C(=O)N2CCC[C@H]2C(=O)NC2(CCCC2)C(=O)N1C` [Compound 284] ([NMeL]I[Sar][Sar][NMeCha][Sar][hPhe(3-Cl-4-CF3)]P[Ac5c][NMePra][NMeD]-Piperidide; lactam N-11) was tested. Which IC50 did it give?
A: Its IC50 is 71 nM.

Q: With `CC[C@H](C)[C@@H]1NC(=O)[C@H](CC(C)C)N(C)C(=O)C[C@@H](C(=O)N2CCCCC2)N(C)C(=O)[C@H](CC(C)C)NC(=O)[C@H](Cc2ccccc2)N(C)C(=O)[C@H](C)NC(=O)[C@H](Cc2cccc(I)c2)NC(=O)CN(C)C(=O)[C@H](Cc2ccc(C)cc2)N(C)C(=O)CN(C)C(=O)CN(C)C1=O` [Compound 619] ([NMeL]I[Sar][Sar][NMePhe(4-Me)][Sar][Phe(3-I)]A[NMeF]L[NMeD]-Piperidide; lactam N-11) as the molecule, how does the IC50 read?
A: The IC50 was 19 nM.

Q: How did the IC50 turn out when `CC[C@H](C)[C@@H]1NC(=O)[C@H](CC(C)C)N(C)C(=O)C[C@@H](C)NC(=O)[C@H](C(C)C)N(C)C(=O)C2(CCCC2)NC(=O)[C@@H]2CCCN2C(=O)[C@H](CCc2ccc(C(F)(F)F)c(Cl)c2)NC(=O)CN(C)C(=O)[C@H](Cc2ccccc2C)N(C)C(=O)CN(C)C(=O)CN(C)C1=O` [Compound 1614] (cyclo([Ac5c][NMeV][d(β3hA)][NMeL]I[Sar][Sar][NMePhe(2-Me)][Sar][hPhe(3-Cl-4-CF3)]P)) was run?
A: The IC50 was 51 nM.

Q: `C=CC[C@]1(C)NC(=O)[C@@H]2CCCN2C(=O)[C@H](CCc2ccc(C(F)(F)F)c(Cl)c2)NC(=O)CN(C)C(=O)[C@H](CC2CCCCC2)N(C)C(=O)CN(C)C(=O)CN(C)C(=O)[C@H]([C@@H](C)CC)NC(=O)[C@H](CC(C)C)N(C)C(=O)C[C@@H](C)NC(=O)[C@H](C(C)C)N(C)C1=O` [Compound 242] (cyclo(I[Sar][Sar][NMeCha][Sar][hPhe(3-Cl-4-CF3)]P[X2][NMeV][d(β3hA)][NMeL])) was tested. Which IC50 did it give?
A: The IC50 was 27 nM.

Q: `CC[C@H](C)[C@@H]1NC(=O)[C@H](CC(C)C)N(C)C(=O)C[C@@H](C(=O)N2CCCCC2)N(C)C(=O)[C@H](CC(C)C)NC(=O)C(C)(C)N(C)C(=O)[C@H](Cc2ccc(OC)cc2)NC(=O)[C@H](Cc2cccc(I)c2)NC(=O)CN(C)C(=O)[C@H](Cc2ccc(C)cc2)N(C)C(=O)CN(C)C(=O)CN(C)C1=O` [Compound 247] ([NMeL]I[Sar][Sar][NMePhe(4-Me)][Sar][Phe(3-I)]Y(Me)[NMeAib]L[NMeD]-Piperidide; lactam N-11) was tested. Which IC50 did it give?
A: Its IC50 is 7 nM.

Q: With `CC[C@H](C)[C@@H]1NC(=O)[C@H](CC(C)C)N(C)C(=O)C[C@@H](C(=O)N2CCCCC2)N(C)C(=O)[C@H](C2CCCCC2)N(C)C(=O)C2(CCCC2)NC(=O)[C@@H]2C[C@H](c3ccccc3)CN2C(=O)[C@H](CCc2ccc(C(F)(F)F)c(Cl)c2)NC(=O)CN(C)C(=O)[C@H](CC2CCCCC2)N(C)C(=O)[C@@H]2CCN2C(=O)[C@H](C)N(C)C1=O` [Compound 1053] ([NMeL]I[NMeA][Aze][NMeCha][Sar][hPhe(3-Cl-4-CF3)][Pro(cis-4-Ph)][Ac5c][NMeChg][NMeD]-Piperidide; lactam N-11) as the molecule, how does the IC50 read?
A: Its IC50 is 6.7 nM.

Q: For `CC[C@H](C)[C@@H]1NC(=O)[C@H](CC(C)C)N(C)C(=O)C[C@@H](C)NC(=O)[C@H](CC(C)C)N(C)C(=O)C2(CCCC2)NC(=O)[C@@H]2CCCN2C(=O)[C@H](CCc2ccc(C(F)(F)F)c(F)c2)NC(=O)CN(C)C(=O)[C@H](CCCCC(F)F)N(C)C(=O)CN(C)C(=O)CN(C)C1=O` [Compound 1515] (cyclo([Ac5c][NMeL][d(β3hA)][NMeL]I[Sar][Sar][NMeNle(6-CHF2)][Sar][hPhe(3-F,4-CF3)]P)), which IC50 is on record?
A: The IC50 was 77 nM.

Q: With `CC[C@H](C)[C@@H]1NC(=O)[C@H](CC(C)C)N(C)C(=O)C[C@H]2CCCN2C(=O)[C@H](C2CCCCC2)N(C)C(=O)C2(CCCC2)NC(=O)[C@@H]2CCCN2C(=O)[C@H](CCc2ccc(C(F)(F)F)c(Cl)c2)NC(=O)CN(C)C(=O)[C@H](CC2CCCCC2)N(C)C(=O)CN(C)C(=O)CN(C)C1=O` [Compound 1185] (cyclo([Ac5c][NMeChg][d(β3hP)][NMeL]I[Sar][Sar][NMeCha][Sar][hPhe(3-Cl-4-CF3)]P)) as the molecule, how does the IC50 read?
A: Its IC50 is 11 nM.

Q: Which IC50 does the source give for `CC[C@H](C)[C@@H]1NC(=O)[C@H](C)N(C)C(=O)C[C@@H](C)NC(=O)[C@H](C2CCCC2)N(C)C(=O)C2(CCCC2)NC(=O)[C@@H]2CCCN2C(=O)[C@H](CCc2ccc(C(F)(F)F)c(Cl)c2)NC(=O)[C@@H](C)N(C)C(=O)[C@H](CC2CCCCC2)N(C)C(=O)[C@@H]2CCN2C(=O)[C@H](C)N(C)C1=O` [Compound 1510] (cyclo([Ac5c][NMeGly(cPent)][d(β3hA)][NMeA]I[NMeA][Aze][NMeCha][dNMeA][hPhe(3-Cl-4-CF3)]P)) here?
A: Its IC50 is 110 nM.

Q: For `CC[C@H](C)[C@@H]1NC(=O)[C@H](CC(C)C)N(C)C(=O)C[C@@H](C(=O)N2CCCCC2)N(C)C(=O)[C@H](C2CCCCC2)N(C)C(=O)C2(CCCC2)NC(=O)[C@@H]2CC(=O)CCN2C(=O)[C@H](CCc2ccc(C(F)(F)F)c(Cl)c2)NC(=O)CN(C)C(=O)[C@H](CC2CCCCC2)N(C)C(=O)CN(C)C(=O)CN(C)C1=O` [Compound 1089] ([NMeL]I[Sar][Sar][NMeCha][Sar][hPhe(3-Cl-4-CF3)][Pip(4-oxo)][Ac5c][NMeChg][NMeD]-Piperidide; lactam N-11), which IC50 is on record?
A: Its IC50 is 1.6 nM.
